Data reported in publication PMC6240894 (2018).

How the values were obtained:
[1] = tested on: Kras 22 (DNA, G4) AGGGCGGTGTGGGAATAGGGAA; assay: UV/Vis and fluorescence titration, averaged; details: K+ 100 mM; 10 mM Tris, pH 7.4, 25 °C; site 1 of 2; K12 1.7 × 10^6; 1:2 fit of lower credibility
[2] = tested on: sG4 (DNA, G4) GGGTGGGTAGGGTGGG; assay: UV/Vis and fluorescence titration, averaged; details: K+ 100 mM; 10 mM Tris, pH 7.4, 25 °C
[3] = tested on: c-myc (DNA, G4) TGAGGGTGGGTAGGGTGGGTAA; assay: UV/Vis and fluorescence titration, averaged; details: K+ 100 mM; 10 mM Tris, pH 7.4, 25 °C
[4] = tested on: VAV-1 (DNA, G4) GGGCAGGGAGGGAACTGGG; assay: UV/Vis and fluorescence titration, averaged; details: K+ 100 mM; 10 mM Tris, pH 7.4, 25 °C
[5] = tested on: Kras 32 (DNA, G4) AGGGCGGTGTGGGAAGAGGGAAGAGGGGGAGG; assay: UV/Vis and fluorescence titration, averaged; details: K+ 100 mM; 10 mM Tris, pH 7.4, 25 °C; site 1 of 2; K12 4.1 × 10^5; 1:2 fit of lower credibility
[6] = tested on: 25Ceb (DNA, G4) AGGGTGGGTGTAAGTGTGGGTGGGT; assay: UV/Vis and fluorescence titration, averaged; details: K+ 100 mM; 10 mM Tris, pH 7.4, 25 °C
[7] = tested on: 22AG (DNA, G4) AGGGTTAGGGTTAGGGTTAGGG; assay: fluorescence and UV/Vis titration; details: K+ 100 mM; 10 mM Tris, pH 7.4, 25 °C; lower optical response

SMILES: COCCOCCOCCOc1cc(CN2C(=CC3=C([O-])C(=Cc4sc5ccccc5[n+]4Cc4cc(OCCOCCOCCOC)c(OCCOCCOCCOC)c(OCCOCCOCCOC)c4)C3=C(C#N)C#N)Sc3ccccc32)cc(OCCOCCOCCOC)c1OCCOCCOCCOC
- K11 [1]: 1.5e+07 M⁻¹
- K11 [2]: 8.1e+06 M⁻¹
- K11 [3]: 1e+07 M⁻¹
- K11 [4]: 1.2e+07 M⁻¹
- K11 [5]: 5.9e+06 M⁻¹
- K11 [6]: 900000 M⁻¹
- binding [7]: weak
